These results are taken from EPA's ToxRefDB 2.

The structures appear in SMILES notation.

Broadly, the LOAEL is the lowest tested level that showed an adverse finding. A word on the NOAEL: it is the highest dose or exposure tested at which no adverse effect was seen.

Series [1] relates to mouse. The note with it: Carcinogenicity, cd1, Oral, Feed, dose end: 18 month, group: systemic.
Series [2] relates to dog. The note with it: Chronic toxicity, beagle, Oral, Feed, dose end: 52 week, group: systemic.
The test system of series [3] is mouse. The following applies: Carcinogenicity, cd1, Oral, Feed, dose end: 18 month, group: systemic. The source holds these as a separate data set.
The test system of series [4] is rat. The note with it: Prenatal developmental toxicity study, sprague dawley, Oral, Gavage/Intubation, dose end: 15 GD.
Series [5] relates to dog. The note with it: Subchronic oral toxicity in nonrodent, beagle, Feed, dose end: 13 week, group: systemic.
Series [6] deals with rat. The following applies: Multigenerational reproductive toxicity study, sprague dawley, Oral, Feed, dose end: 2 generation.
For series [7], the system named is rat. The note with it: Combined chronic toxicity/carcinogenicity, sprague dawley, Oral, Feed, dose end: 24 month, group: systemic.
The subject of series [8] is mouse. The note with it: Subchronic oral toxicity in rodents, cd1, Feed, dose end: 13 week, group: systemic.
For series [9], the system named is rat. The following applies: Subchronic oral toxicity in rodents, sprague dawley, Feed, dose end: 90 day, group: systemic.
Series [10] has as its system dog. The note with it: Subchronic oral toxicity in nonrodent, beagle, Feed, dose end: 13 week, group: systemic. The source holds these as a separate data set.
The mark [11] stands for this setting: systemic / in life observation / body weight / body weight gain.
Where [12] appears, read: systemic / in life observation / body weight / body weight gain + systemic / clinical chemistry / alkaline phosphatase (alp/alk) / alkaline ….
Setting [13] is: group: developmental, developmental / developmental malformation / kidney / dilated renal pelvis + developmental / developmental malformation / ureter / dilated.
Where [14] appears, read: group: maternal, systemic / in life observation / body weight / body weight gain + systemic / in life observation / food consumption / food consumption.
Where [15] appears, read: systemic / in life observation / clinical signs / defecation (diarrhea).
[16] abbreviates: systemic / in life observation / clinical signs / defecation (diarrhea) + systemic / clinical chemistry / alpha-1 globulin / alpha-1 ….
[17] abbreviates: group: offspring, systemic / in life observation / body weight / offspring (pup) weight + systemic / in life observation / body weight / offspring (pup) ….
[18] abbreviates: group: parental, systemic / in life observation / clinical signs / anogenital staining.
Setting [19] is: group: parental, systemic / in life observation / clinical signs / anogenital staining + systemic / in life observation / body weight / body weight + ….
The mark [20] stands for this setting: systemic / in life observation / body weight / body weight + systemic / in life observation / body weight / body weight gain + systemic / ….
Setting [21] is: systemic / clinical chemistry / 5' nucleotidase / 5' nucleotidase + systemic / clinical chemistry / alkaline phosphatase (alp/alk) / ….
[22] abbreviates: systemic / in life observation / body weight / body weight + systemic / in life observation / food consumption / food consumption + systemic….

Regarding `N#Cc1c[nH]cc1-c1cccc2c1OC(F)(F)O2` [Fludioxonil], the NEL in the series with mouse [1] (systemic / organ weight / heart / absolute + systemic / organ weight / kidney / absolute + systemic / organ weight / liver / relative to …) was 3.3 mg/kg/day; in the series on dog [2] (setting [12]), 3.3 mg/kg/day; in the series with mouse [3] (setting [11]) it was under 1.1 mg/kg/day; in the series with rat [4] (setting [13]), 10 mg/kg/day; with rat [4] (setting [14]), 100 mg/kg/day; in the series with dog [5] (setting [16]) it was 5 mg/kg/day. In addition, the NEL in the series on rat [6] (setting [17]) stood at 22.1 mg/kg/day; in the series on rat [6] (setting [18]) it was 22.1 mg/kg/day; in the series on rat [7] (setting [20]), 3.7 mg/kg/day; with mouse [8] (systemic / organ weight / liver / relative to body weight + systemic / pathology microscopic / liver / hypertrophy + systemic / clinical …), 178 mg/kg/day; in the series with rat [9] (systemic / organ weight / thymus / relative to body weight + systemic / clinical chemistry / alkaline phosphatase (alp/alk) / alkaline …) it was 7.1 mg/kg/day. Moreover, the LOAEL with mouse [1] (systemic / pathology microscopic / kidney / nephropathy) worked out at 590 mg/kg/day; in the series with dog [2] (setting [11]), 35.5 mg/kg/day; in the series on mouse [3] (systemic / in life observation / clinical signs / convulsions + systemic / in life observation / clinical signs / urine, discoloration + …) it was 112 mg/kg/day; in the series with rat [4] (setting [13]), 1000 mg/kg/day; with rat [4] (group: maternal, systemic / in life observation / body weight / body weight gain) it was 1000 mg/kg/day; in the series with dog [5] (setting [15]), 50 mg/kg/day. The LOAEL came out at 222 mg/kg/day in the series with rat [6] (group: offspring, systemic / in life observation / body weight / offspring (pup) weight); 222 mg/kg/day in the series on rat [6] (setting [19]); 113 mg/kg/day in the series with rat [7] (setting [20]); 1050 mg/kg/day in the series on mouse [8] (setting [21]); 428 mg/kg/day in the series with rat [9] (systemic / in life observation / body weight / body weight gain + systemic / pathology microscopic / kidney / nephropathy). The no-observed-adverse-effect level (NOAEL) in the series on mouse [1] (systemic / pathology microscopic / kidney / nephropathy + systemic / hematology / hematocrit (hct) / hematocrit (hct) + systemic / …) came out at 3.3 mg/kg/day; in the series on dog [2] (setting [12]) it was 3.3 mg/kg/day; in the series with mouse [3] (systemic / in life observation / body weight / body weight gain + systemic / in life observation / clinical signs / convulsions + systemic…), 11.3 mg/kg/day; in the series with rat [4] (setting [13]), 100 mg/kg/day; in the series with rat [4] (setting [14]) it was 100 mg/kg/day; in the series on dog [5] (setting [16]) it was 5 mg/kg/day. The no observed adverse effect level (NOAEL) with rat [6] (setting [17]) worked out at 22.1 mg/kg/day; in the series on rat [6] (setting [18]), 22.1 mg/kg/day; in the series on rat [7] (setting [20]) it was 37 mg/kg/day; in the series with mouse [8] (setting [21]), 445 mg/kg/day; with rat [9] (systemic / in life observation / body weight / body weight gain + systemic / pathology microscopic / kidney / nephropathy + systemic / …), 64 mg/kg/day. The LEL in the series with mouse [1] (systemic / pathology microscopic / kidney / nephropathy + systemic / hematology / hemoglobin (hgb) / hemoglobin (hgb) + systemic / …) was 590 mg/kg/day; with dog [2] (setting [11]), 35.5 mg/kg/day; with mouse [3] (setting [11]), 1.1 mg/kg/day; with rat [4] (group: developmental, developmental / developmental malformation / ureter / dilated) it was 100 mg/kg/day; with rat [4] (setting [14]) it was 1000 mg/kg/day; with dog [5] (setting [15]), 50 mg/kg/day. Moreover, the LEL in the series with rat [6] (setting [17]) is 222 mg/kg/day; in the series with rat [6] (setting [19]), 222 mg/kg/day; in the series with rat [7] (systemic / in life observation / clinical signs / body surface staining + systemic / in life observation / clinical signs / feces, …), 37 mg/kg/day; in the series on mouse [8] (systemic / organ weight / liver / relative to body weight + systemic / pathology microscopic / liver / hypertrophy), 559 mg/kg/day; with rat [9] (systemic / organ weight / thymus / relative to body weight), 70 mg/kg/day.
As for `Cn1sccc1=O` [2-Methyl-3(2H)-isothiazolone], in the series with dog [10] (systemic / in life observation / body weight / body weight + systemic / in life observation / food consumption / food consumption), the LOAEL worked out at 40.6 mg/kg/day. Further, in the series on dog [10] (setting [22]), the LEL is 40.6 mg/kg/day, the NEL was found to be 9.9 mg/kg/day and the NOAEL was determined as 9.9 mg/kg/day.
